Measured values taken from ChEMBL document CHEMBL3885881, “DrugMatrix”.

Species on record: Rattus norvegicus
Assay: DrugMatrix - Regimen: Daily Repeat
Assay type: toxicity, organism-based, Sprague-Dawley
Design: regimen Daily Repeat, gender Male, age 6-8 weeks
Conditions: in vivo, po, 3 mg/kg, route oral GAVAGE, dose level Low, vehicle 100 % WATER; for ABSOLUTE BASOPHIL / ABSOLUTE EOSINOPHIL / ABSOLUTE LYMPHOCYTE / ABSOLUTE MONOCYTE / ABSOLUTE SEGMENTED NEUTROPHIL / BASOPHIL / EOSINOPHIL / ERYTHROCYTE COUNT / HEMATOCRIT / HEMOGLOBIN / LEUKOCYTE COUNT / LYMPHOCYTE / MEAN CORPUSCULAR HEMOGLOBIN / MEAN CORPUSCULAR HEMOGLOBIN CONCENTRATION / MONOCYTE / NEUTROPHIL / NUCLEATED RED BLOOD CELLS / PLATELET COUNT: tissue Blood; for ALANINE AMINOTRANSFERASE / ALBUMIN / ALKALINE PHOSPHATASE / ASPARTATE AMINOTRANSFERASE / BLOOD UREA NITROGEN / CARBON DIOXIDE / CHLORIDE / CHOLESTEROL / CREATINE PHOSPHOKINASE / CREATININE / GLUCOSE / LACTATE DEHYDROGENASE / LIPASE / PHOSPHORUS / SODIUM / TOTAL BILIRUBIN / TOTAL PROTEIN / URIC ACID: tissue Plasma

COc1cc2nc(N3CCN(C(=O)C4CCCO4)CC3)nc(N)c2cc1OC (configuration not stated) [TERAZOSIN]
ABSOLUTE BASOPHIL (72 h, time 3 day): 0 CELLS/uL
ABSOLUTE EOSINOPHIL (72 h, time 3 day): 53.33 CELLS/uL
ABSOLUTE LYMPHOCYTE (72 h, time 3 day): 7633 CELLS/uL
ABSOLUTE MONOCYTE (72 h, time 3 day): 36.67 CELLS/uL
ABSOLUTE SEGMENTED NEUTROPHIL (72 h, time 3 day): 977 CELLS/uL
BASOPHIL (72 h, time 3 day): 0%
EOSINOPHIL (72 h, time 3 day): 0.67%
ERYTHROCYTE COUNT (72 h, time 3 day): 4.99 x10E6/uL
HEMATOCRIT (72 h, time 3 day): 32.2%
HEMOGLOBIN (72 h, time 3 day): 12.87 G/DL
LEUKOCYTE COUNT (72 h, time 3 day): 8.7 x10E3/uL
LYMPHOCYTE (72 h, time 3 day): 88%
MEAN CORPUSCULAR HEMOGLOBIN (72 h, time 3 day): 25.87 pg
MEAN CORPUSCULAR HEMOGLOBIN CONCENTRATION (72 h, time 3 day): 40 G/DL
MONOCYTE (72 h, time 3 day): 0.33%
NEUTROPHIL (72 h, time 3 day): 11%
NUCLEATED RED BLOOD CELLS (72 h, time 3 day): 0 /100WBC
PLATELET COUNT (72 h, time 3 day): 1053.33 x10E3/uL
ALANINE AMINOTRANSFERASE (72 h, time 3 day): 63.67 u/L
ALBUMIN (72 h, time 3 day): 4.27 G/DL
ALKALINE PHOSPHATASE (72 h, time 3 day): 367.67 u/L
ASPARTATE AMINOTRANSFERASE (72 h, time 3 day): 102.33 u/L
BLOOD UREA NITROGEN (72 h, time 3 day): 16.67 mg/dL
CARBON DIOXIDE (72 h, time 3 day): 32.67 mmol/L
CHLORIDE (72 h, time 3 day): 103.33 MEQ/L
CHOLESTEROL (72 h, time 3 day): 74 mg/dL
CREATINE PHOSPHOKINASE (72 h, time 3 day): 321.67 u/L
CREATININE (72 h, time 3 day): 0.24 mg/dL
GLUCOSE (72 h, time 3 day): 155 mg/dL
LACTATE DEHYDROGENASE (72 h, time 3 day): 197.67 u/L
LIPASE (72 h, time 3 day): 8.33 u/L
PHOSPHORUS (72 h, time 3 day): 12.7 mg/dL
SODIUM (72 h, time 3 day): 145.9 MEQ/L
TOTAL BILIRUBIN (72 h, time 3 day): 0.13 mg/dL
TOTAL PROTEIN (72 h, time 3 day): 5.97 G/DL
URIC ACID (72 h, time 3 day): 1.27 mg/dL
ABSOLUTE BASOPHIL (120 h, time 5 day): 0 CELLS/uL
ABSOLUTE EOSINOPHIL (120 h, time 5 day): 0 CELLS/uL
ABSOLUTE LYMPHOCYTE (120 h, time 5 day): 9705.67 CELLS/uL
ABSOLUTE MONOCYTE (120 h, time 5 day): 145.67 CELLS/uL
ABSOLUTE SEGMENTED NEUTROPHIL (120 h, time 5 day): 882 CELLS/uL
BASOPHIL (120 h, time 5 day): 0%
EOSINOPHIL (120 h, time 5 day): 0%
ERYTHROCYTE COUNT (120 h, time 5 day): 5.4 x10E6/uL
HEMATOCRIT (120 h, time 5 day): 35.9%
HEMOGLOBIN (120 h, time 5 day): 13.87 G/DL
LEUKOCYTE COUNT (120 h, time 5 day): 10.73 x10E3/uL
LYMPHOCYTE (120 h, time 5 day): 90.33%
MEAN CORPUSCULAR HEMOGLOBIN (120 h, time 5 day): 25.7 pg
MEAN CORPUSCULAR HEMOGLOBIN CONCENTRATION (120 h, time 5 day): 38.67 G/DL
MONOCYTE (120 h, time 5 day): 1.33%
NEUTROPHIL (120 h, time 5 day): 8.33%
NUCLEATED RED BLOOD CELLS (120 h, time 5 day): 0 /100WBC
PLATELET COUNT (120 h, time 5 day): 1076.33 x10E3/uL
ALANINE AMINOTRANSFERASE (120 h, time 5 day): 56.67 u/L
ALBUMIN (120 h, time 5 day): 4.27 G/DL
ALKALINE PHOSPHATASE (120 h, time 5 day): 361.33 u/L
ASPARTATE AMINOTRANSFERASE (120 h, time 5 day): 85.33 u/L
BLOOD UREA NITROGEN (120 h, time 5 day): 20.67 mg/dL
CARBON DIOXIDE (120 h, time 5 day): 30 mmol/L
CHLORIDE (120 h, time 5 day): 102.67 MEQ/L
CHOLESTEROL (120 h, time 5 day): 75.33 mg/dL
CREATINE PHOSPHOKINASE (120 h, time 5 day): 197.33 u/L
CREATININE (120 h, time 5 day): 0.24 mg/dL
GLUCOSE (120 h, time 5 day): 172 mg/dL
LACTATE DEHYDROGENASE (120 h, time 5 day): 141.67 u/L
LIPASE (120 h, time 5 day): 11.33 u/L
PHOSPHORUS (120 h, time 5 day): 13.7 mg/dL
SODIUM (120 h, time 5 day): 146.17 MEQ/L
TOTAL BILIRUBIN (120 h, time 5 day): 0.2 mg/dL
TOTAL PROTEIN (120 h, time 5 day): 5.9 G/DL
URIC ACID (120 h, time 5 day): 1.7 mg/dL
